Laboratory results as given in patent US8680052B1, “Methods of treating, reducing the incidence of, and/or preventing ischemic events” (The Medicines Company, priority 2013, dated 2014).
Where two headings read alike, the source gives them in different places.

Legend:
P2Y12 receptor = target: T1, P2Y12 receptor (Homo sapiens, UniProt Q9H244); assay: Example 4: VerifyNow P2Y12 assay, platelet reactivity in PRU; format: in vivo
T1 construct: from tissue; host or cells: platelets in whole blood of patients
Method: The study involved 12 patients who met the criteria of being 18-75 years of age, having coronary artery disease (CAD) documented by a previous MI or coronary revascularization, and taking 81 mg of aspirin daily. […] Use of non-steroidal anti-inflammatory agents was discouraged during study participation but not prohibited.
Each patient was administered a 30 μg/kg bolus of cangrelor followed immediately by a 2 hr infusion at a rate of 4.0 μg/kg/min. A loading dose of ticagrelor (180 mg) was given after 0.5 hr or 1.25 hr (n=6 for each). Blood for pharmacodynamic platelet function studies was taken after 0.5 or 1.25 hr (corresponding to the time of ticagrelor load, n=6 for each), and then at 1.75, 2, 2.25, 2.5, 2.75, 3, 4, and 5.25 hr. Patients were assigned randomly to receive either 6 (n=6) or 7 (n=6) doses of ticagrelor to be taken every 12 hours following the discontinuation of the infusion of cangrelor. On study day 5, each patient was administered a 30 μg/kg bolus of cangrelor followed immediately by a 2 hr infusion at a rate of 4.0 μg/kg/min. Blood for pharmacodynamic assessment was taken after 1 and 2 hr. Adverse events were queried throughout study participation that ended with a telephone interview performed on study day 10-12.
Pharmacodynamic assessment included light transmission aggregometry (LTA), VerifyNow® P2Y12 assay, vasodilator-stimulated phosphoprotein (VASP) index, and platelet activation measured with the use of flow cytometry. Assessment of LTA, VerifyNow®, and platelet activation with the use of flow cytometry was performed within 30 min of blood being taken. In the case of flow cytometry, samples were processed to fixation and then batched for analysis. For VASP, index samples were batched and processed as recommended by the vendor within 2 h of blood being taken. This approach limited the time from fixation of VASP index to flow analysis to less than 1 h.
LTA induced by 5 μM and 20 μM adenosine diphosphate (ADP) was quantified ex vivo (i.e. in non-adjusted platelet rich plasma). Platelet-poor plasma was set as 100% aggregation, and both maximal (peak) and terminal (at 300 s) aggregation were measured with a PAP4 aggregometer (BioData, Horsham, Pa.). VerifyNow® P2Y12 assay (Accumetrics Inc, San Diego, Calif.) that measures the effects of drugs on the P2Y12 receptor by activating platelets with prostaglandin El in addition to ADP was used in accordance with the instructions provided by the manufacturer. Platelet reactivity was expressed in P2Y12 reaction units (PRU). Activation of platelets was identified with the use of flow cytometry as previously described.^17. And to determine the VASP index, a commercially available kit (Diagnostica Stago, Inc, Parsippany NJ) was used. ^17 Schneider D J, Sobel B E. Streamlining the design of promising clinical trials: in-vitro testing of antithrombotic regimens and multiple agonists of platelet activation. Coron Artery Dis. 2009; 20:175-8.

[1] = system: patients with atherosclerosis undergoing PCI
Method: The protocol called for aspirin (75 to 325 mg) to be administered to all patients. […] The choice of a periprocedural anticoagulant (bivalirudin, unfractionated heparin, low-molecular-weight heparin, or fondaparinux) was also at the discretion of the investigator. Glycoprotein IIb/IIIa inhibitors were allowed only as rescue therapy during PCI to treat new or persistent thrombus formation, slow or no reflow, side-branch compromise, dissection, or distal embolization. The investigator at the site determined the protocol for management of the arterial sheath.
The inclusion criteria for the trial were men or nonpregnant women, 18 years of age or older with coronary atherosclerosis who required PCI for stable angina, a non-ST-segment elevation acute coronary syndrome, or ST-segment elevation myocardial infarction (STEMI). Patients were required to provide written informed consent.
Major exclusion criteria were receipt of a P2Y12 inhibitor or abciximab at any time in the 7 days before randomization and receipt of eptifibatide or tirofiban or fibrinolytic therapy in the 12 hours before randomization.
The primary efficacy end point was the composite rate of death from any cause, myocardial infarction, IDR, or stent thrombosis in the 48 hours after randomization in the modified intention-to-treat population (which comprised patients who actually underwent PCI and received the study drug). […] The key secondary end point was the incidence of stent thrombosis at 48 hours. This end point included definite stent thrombosis, defined according to the criteria of the Academic Research Consortium, or intraprocedural stent thrombosis, which was assessed, with group assignments concealed, at an angiographic core laboratory (Cardiovascular Research Foundation). Intraprocedural stent thrombosis was defined as any new or worsened thrombus related to the stent procedure that was confirmed angiographically. Events of death, myocardial infarction, IDR, and stent thrombosis that occurred during the first 30 days after randomization were adjudicated by the clinical events committee at the Duke Clinical Research Institute. The study adhered to the universal definition of myocardial infarction for myocardial infarction unrelated to PCI but expanded on the definition of PCI-related myocardial infarction.
The numbers and percentages of patients within each analysis population (modified intention-to-treat, intention-to-treat, and safety) were summarized according to treatment group. The primary efficacy analysis of the rate of the composite end point of death from any cause, myocardial infarction, IDR, or stent thrombosis (with all events adjudicated by the clinical events committee) in the 48 hours after randomization was conducted in the modified intention-to-treat population. The primary safety analysis was conducted in the safety population, which comprised all patients who underwent randomization and received at least one dose of the study drug; patients were classified according to the actual treatment received. All calculations and statistical analyses were performed with the use of SAS software, version 9.2.

[2] = Study Day 1, 1.75 h, Ticagrelor at 0.5 hr
[3] = Study Day 1, 1.75 h, Ticagrelor at 1.25 hr
[4] = Study Day 1, 2.0 h, Ticagrelor at 0.5 hr
[5] = Study Day 1, 2.0 h, Ticagrelor at 1.25 hr
[6] = Study Day 1, reference 0.5/1.25 h, All
[7] = Study Day 1, reference 0.5/1.25 h, Ticagrelor at 0.5 hr
[8] = Study Day 1, reference 0.5/1.25 h, Ticagrelor at 1.25 hr
[9] = Study Day 5, 1.0 h, Ticagrelor 6 doses
[10] = Study Day 5, 1.0 h, Ticagrelor 7 doses
[11] = Study Day 5, 2.0 h, Ticagrelor 6 doses
[12] = Study Day 5, 2.0 h, Ticagrelor 7 doses
[13] = 48 hours, ITT, Cangrelor vs Clopidogrel
[14] = 48 hours, ITT, rate in parentheses
[15] = 48 hours, modified intention-to-treat, Cangrelor vs Clopidogrel
[16] = 30 days, cangrelor vs clopidogrel
[17] = 30 days, modified intention-to-treat population
[18] = 30 days, modified intention-to-treat, Cangrelor vs Clopidogrel

T1 sequence (Q9H244 whole entry): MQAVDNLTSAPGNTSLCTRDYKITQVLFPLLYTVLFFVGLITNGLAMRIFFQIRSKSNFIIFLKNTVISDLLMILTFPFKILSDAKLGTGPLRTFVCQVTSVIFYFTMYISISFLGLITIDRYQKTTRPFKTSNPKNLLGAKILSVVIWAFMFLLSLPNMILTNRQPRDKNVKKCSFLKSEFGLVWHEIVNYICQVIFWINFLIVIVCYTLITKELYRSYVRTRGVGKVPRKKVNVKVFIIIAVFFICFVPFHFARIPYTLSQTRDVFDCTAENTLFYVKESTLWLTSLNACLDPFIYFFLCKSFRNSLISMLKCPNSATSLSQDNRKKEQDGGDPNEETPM

CSCCNc1nc(SCCC(F)(F)F)nc2c1ncn2[C@@H]1O[C@H](COP(=O)(O)OP(=O)(O)C(Cl)(Cl)P(=O)(O)O)[C@@H](O)[C@H]1O [Cangrelor, cangrelor]
VerifyNow IPR (P2Y12 receptor; Study Day 1, 1.75 h, All): 99 ± 1 | VerifyNow PRU (P2Y12 receptor; Study Day 1, 1.75 h, All): 3.8 ± 2.6 PRU | VerifyNow IPR (P2Y12 receptor; [2]): 99 ± 1 | VerifyNow PRU (P2Y12 receptor; [2]): 3.8 ± 2.6 PRU | VerifyNow IPR (P2Y12 receptor; [3]): 99 ± 1 | VerifyNow PRU (P2Y12 receptor; [3]): 3.7 ± 2.8 PRU | VerifyNow IPR (P2Y12 receptor; Study Day 1, 2.0 h, All): 98 ± 3 | VerifyNow PRU (P2Y12 receptor; Study Day 1, 2.0 h, All): 6.4 ± 7.5 PRU | VerifyNow IPR (P2Y12 receptor; [4]): 97 ± 2 | VerifyNow PRU (P2Y12 receptor; [4]): 6.9 ± 4.9 PRU | VerifyNow IPR (P2Y12 receptor; [5]): 98 ± 4 | VerifyNow PRU (P2Y12 receptor; [5]): 5.9 ± 9.9 PRU | VerifyNow IPR (P2Y12 receptor; [6]): 97 ± 3 | VerifyNow PRU (P2Y12 receptor; [6]): 7.3 ± 9.3 PRU | VerifyNow IPR (P2Y12 receptor; [7]): 97 ± 4 | VerifyNow PRU (P2Y12 receptor; [7]): 8.8 ± 12 PRU | VerifyNow IPR (P2Y12 receptor; [8]): 98 ± 3 | VerifyNow PRU (P2Y12 receptor; [8]): 5.8 ± 7.3 PRU | VerifyNow IPR (P2Y12 receptor; Study Day 5, 1.0 h, All): 99 ± 1 | VerifyNow PRU (P2Y12 receptor; Study Day 5, 1.0 h, All): 3.3 ± 2 PRU | VerifyNow IPR (P2Y12 receptor; [9]): 99 ± 1 | VerifyNow PRU (P2Y12 receptor; [9]): 2.8 ± 1.9 PRU | VerifyNow IPR (P2Y12 receptor; [10]): 98 ± 1 | VerifyNow PRU (P2Y12 receptor; [10]): 3.9 ± 2.1 PRU | VerifyNow IPR (P2Y12 receptor; Study Day 5, 2.0 h, All): 98 ± 3 | VerifyNow PRU (P2Y12 receptor; Study Day 5, 2.0 h, All): 4.5 ± 6.4 PRU | VerifyNow IPR (P2Y12 receptor; [11]): 99 ± 1 | VerifyNow PRU (P2Y12 receptor; [11]): 2.4 ± 1.9 PRU | VerifyNow IPR (P2Y12 receptor; [12]): 97 ± 3 | VerifyNow PRU (P2Y12 receptor; [12]): 6.5 ± 8.8 PRU | odds ratio, primary end point ([1]; 300-mg loading dose of clopidogrel): 0.84 | odds ratio, primary end point ([1]; 600-mg loading dose of clopidogrel): 0.77 | number needed to treat to prevent one primary end-point event ([1]; 48 hours): 84 | rate of stent thrombosis (key secondary efficacy end point) ([1]; 48 hours): 0.8% | Death OR [1, 13]: 0.95 | Death/MI OR [1, 13]: 0.80 | Death/MI/IDR OR [1, 13]: 0.80 | Death/MI/IDR/ST OR [1, 13]: 0.79 | Death/MI/IDR/ST/GUSTO Severe Bleeding (NACE) OR [1, 13]: 0.80 | Death/MI/ST OR [1, 13]: 0.79 | Death/Q-wave MI/IDR OR [1, 13]: 0.77 | Death/ST OR [1, 13]: 0.67 | IDR OR [1, 13]: 0.76 | MI OR [1, 13]: 0.80 | Q-wave MI OR [1, 13]: 0.61 | Stent thrombosis OR [1, 13]: 0.62 | Death ([1]; 48 hours, ITT, n/N): 20/5573 | Death/MI ([1]; 48 hours, ITT, n/N): 222/5573 | Death/MI/IDR ([1]; 48 hours, ITT, n/N): 233/5573 | Death/MI/IDR/ST ([1]; 48 hours, ITT, n/N): 260/5573 | Death/MI/IDR/ST/GUSTO Severe Bleeding (Net Adverse Clinical Events, NACE) ([1]; 48 hours, ITT, n/N): 267/5573 | Death/MI/ST ([1]; 48 hours, ITT, n/N): 251/5573 | Death/Q-wave MI/IDR ([1]; 48 hours, ITT, n/N): 52/5573 | Death/ST ([1]; 48 hours, ITT, n/N): 61/5573 | IDR ([1]; 48 hours, ITT, n/N): 29/5573 | MI ([1]; 48 hours, ITT, n/N): 207/5573 | Q-wave MI ([1]; 48 hours, ITT, n/N): 11/5573 | Stent thrombosis ([1]; 48 hours, ITT, n/N): 46/5573 | Death [1, 14]: (0.4) | Death/MI [1, 14]: (4.0) | Death/MI/IDR [1, 14]: (4.2) | Death/MI/IDR/ST [1, 14]: (4.7) | Death/MI/IDR/ST/GUSTO Severe Bleeding (Net Adverse Clinical Events, NACE) [1, 14]: (4.8) | Death/MI/ST [1, 14]: (4.5) | Death/Q-wave MI/IDR [1, 14]: (0.9) | Death/ST [1, 14]: (1.1) | IDR [1, 14]: (0.5) | MI [1, 14]: (3.7) | Q-wave MI [1, 14]: (0.2) | Stent thrombosis [1, 14]: (0.8) | odds ratio, stent thrombosis ([1]; 48 hours, cangrelor vs clopidogrel): 0.62 | odds ratio, primary composite efficacy end point ([1]; 48 hours, crude analysis, cangrelor vs clopidogrel): 0.79 | odds ratio, primary composite efficacy end point ([1]; 48 hours, logistic regression adjusted for baseline status and clopidogrel loading dose, cangrelor vs clopidogrel): 0.78 | rate of primary composite efficacy end point (death from any cause, myocardial infarction, IDR, or stent thrombosis) ([1]; 48 hours, modified intention-to-treat): 4.7% | Death from any cause, Odds Ratio (95% CI) [1, 15]: 1.00 (0.52-1.92) | Death from cardiovascular causes, Odds Ratio (95% CI) [1, 15]: 1.00 (0.52-1.92) | Death or stent thrombosis, Odds Ratio (95% CI) [1, 15]: 0.67 (0.48-0.94) | Death, Q-wave myocardial infarction, or ischemia-driven revascularization, Odds Ratio (95% CI) [1, 15]: 0.76 (0.53-1.11) | Death/MI OR (95% CI) [1, 15]: 0.80 (0.67, 0.96) | Death/MI/Definite ST OR (95% CI) [1, 15]: 0.80 (0.66, 0.95) | Death/MI/IDR OR (95% CI) [1, 15]: 0.80 (0.67, 0.95) | Death/MI/IDR/Definite ST OR (95% CI) [1, 15]: 0.80 (0.67, 0.95) | Death/MI/ST OR (95% CI) [1, 15]: 0.79 (0.66, 0.94) | Definite ST OR (95% CI) [1, 15]: 0.54 (0.27, 1.10) | Ischemia-driven revascularization, Odds Ratio (95% CI) [1, 15]: 0.74 (0.45-1.20) | Key secondary end point: stent thrombosis, Odds Ratio (95% CI) [1, 15]: 0.62 (0.43-0.90) | Myocardial infarction, Odds Ratio (95% CI) [1, 15]: 0.80 (0.67-0.97) | Net adverse clinical events, Odds Ratio (95% CI) [1, 15]: 0.80 (0.68-0.94) | Q-wave myocardial infarction, Odds Ratio (95% CI) [1, 15]: 0.61 (0.29-1.29) | Primary end point: death from any cause, myocardial infarction, ischemia-driven revascularization, or stent thrombosis, Odds Ratio (95% CI) ([1]; 48 hours, modified intention-to-treat, Cangrelor vs Clopidogrel, logistic regression adjusted for baseline status and clopidogrel loading dose): 0.78 (0.66-0.93) | net rate of adverse clinical events (primary efficacy plus primary safety end point) ([1]; 48 hours, post hoc): 4.8% | odds ratio, net adverse clinical events ([1]; 48 hours, post hoc, cangrelor vs clopidogrel): 0.80 | Stent thrombosis ([1]; 30 days): 1.3% | rate of the composite efficacy end point ([1]; 30 days): 6.0% | odds ratio, composite efficacy end point [1, 16]: 0.85 | odds ratio, stent thrombosis [1, 16]: 0.68 | Death from any cause [1, 17]: (1.1) percent | Death from any cause, myocardial infarction, ischemia-driven revascularization, or stent thrombosis [1, 17]: (6.0) percent | Death from cardiovascular causes [1, 17]: (0.9) percent | Death from any cause, Odds Ratio [1, 18]: 1.09 | Death from cardiovascular causes, Odds Ratio [1, 18]: 1.04 | Ischemia-driven revascularization, Odds Ratio [1, 18]: 0.85 | Myocardial infarction, Odds Ratio [1, 18]: 0.82 | Q-wave myocardial infarction, Odds Ratio [1, 18]: 0.63 | Stent thrombosis, Odds Ratio [1, 18]: 0.68 | Death from any cause, myocardial infarction, ischemia-driven revascularization, or stent thrombosis, Odds Ratio ([1]; 30 days, modified intention-to-treat, Cangrelor vs Clopidogrel, adjusted logistic regression): 0.85 | odds ratio, intraprocedural stent thrombosis ([1]; cangrelor vs clopidogrel): 0.65 | odds ratio, procedural complications ([1]; cangrelor vs clopidogrel): 0.74 | odds ratio, rescue therapy with a glycoprotein IIb/IIIa inhibitor ([1]; cangrelor vs clopidogrel): 0.65 | odds of an ischemic event lower than with clopidogrel ([1]; in vivo): 22% | odds of stent thrombosis lower than with clopidogrel ([1]; in vivo): 38% | rate of intraprocedural stent thrombosis ([1]; in vivo): 0.6% | rate of procedural complications ([1]; in vivo): 3.4% | use of rescue therapy with a glycoprotein IIb/IIIa inhibitor ([1]; in vivo): 2.3% | odds ratio, primary end point ([1]; infusion for 129 minutes or less): 0.85 | odds ratio, primary end point ([1]; infusion for more than 129 minutes): 0.72 | odds ratio, primary end point ([1]; patients who received the loading dose during or after PCI): 0.79 | odds ratio, primary end point ([1]; patients who received the loading dose immediately before PCI): 0.80
